Reference: patent publication US11447504B2, “Macrocyclic chlorine substituted indole derivatives” (Bayer Aktiengesellschaft, priority 2017, dated 2022)
Structures can show the parent of a compound that is named as a salt. Where two headings read alike, the source gives them in different places.

Tests used:
SUDHL10 [1] = test: Antiproliferation assay 7, SUDHL10; format: cell-based; conditions: SUDHL10 cells, CellTiter-Glo, read-out: Antiproli SUDHL10 IC50 (median)
Summary of the method: (§1)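 Proliferation was read by CellTiter-Glo luminescence after 72 hours of compound treatment at 37° C. The read was referenced to a parallel plate measured at time zero.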

MV-4-11 = test: Antiproliferation assay 7, MV-4-11; format: cell-based; conditions: MV-4-11 cells, CellTiter-Glo, read-out: Antiproli MV-4-11 IC50 median
Summary of the method: as §1

AMO-1 = test: Antiproliferation assay 7, AMO-1; format: cell-based; conditions: AMO-1 cells, CellTiter-Glo, read-out: Antiproli AMO-1 IC50 median
Summary of the method: as §1

HMC-1-8 = test: Antiproliferation assay 7, HMC-1-8; format: cell-based; conditions: HMC-1-8 cells, CellTiter-Glo, read-out: Antiproli HMC-1-8 IC50 median
Summary of the method: as §1

SK-BR-3 = test: Antiproliferation assay 7, SK-BR-3; format: cell-based; conditions: SK-BR-3 cells, 72 hours, CellTiter-Glo, read-out: Antiproli SK-BR-3 IC50 median
Procedure: (§2) Assessment of the Anti-Proliferative Effect of Compounds in Different Cell Lines
(§3) The impact of compounds on the proliferation of different cell lines was assessed using the CellTiter-Glo® Luminescent Cell Viability reagent from Promega (G7573).
(§4) In parallel, cells were plated in a reference (day 0) plate for time zero determination.
(§5) Rim wells were excluded. The cells were incubated for 72 hours in a humidified incubator at 37° C. The day 0 plate was measured by adding 30 μL/well of CTG solution (CellTiter-Glo® Luminescent Cell Viability reagent, Promega G7573) to time zero wells in the reference plate followed by a 10 minutes incubation and luminescence reading at 0.1 ms. using the PHERAstar FS microplate reader (BMG Labtech).
(§6) After 72 hours incubation, the treated plates were measured in the same way as the day 0 plate mentioned above.

A2058 = test: Antiproliferation assay 7, A2058; format: cell-based; conditions: A2058 cells, 72 hours, CellTiter-Glo, read-out: Antiproli A2058 IC50 median
Procedure: as §2, §3, §4, §5, §6

NCI-H23 = test: Antiproliferation assay 7, NCI-H23; format: cell-based; conditions: NCI-H23 cells, 72 hours, CellTiter-Glo, read-out: Antiproli NCI-H23 IC50 median
Procedure: as §2, §3, §4, §5, §6

SNU-389 = test: Antiproliferation assay 7, SNU-389; format: cell-based; conditions: SNU-389 cells, 72 hours, CellTiter-Glo; read-out: Antiproli SNU-389 IC50 median
Procedure: as §2, §3, §4, §5, §6

SUDHL5 [2] = test: Induction of caspase-3/7 activity (Assay 4), SUDHL5; format: cell-based; conditions: SUDHL5 cells
Summary of the method: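 DLBCL cells treated with compounds for 3 hours at 37° C. Caspase-3/7 activity measured by Caspase-Glo 3/7 luminescence, with medium-only background subtracted.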

SUDHL10 [3] = test: Induction of caspase-3/7 activity (Assay 4), SUDHL10; format: cell-based; conditions: SUDHL10 cells
Summary of the method: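 Luminescent Caspase-Glo 3/7 read-out after a 3 h, 37 °C compound exposure of the DLBCL line SUDHL10. Values are background-corrected using medium-only wells.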

SUDHL5 [4] = test: Antiproliferation assay 7, SUDHL5; format: cell-based; conditions: SUDHL5 cells, CellTiter-Glo, read-out: Antiproli SUDHL5 IC50 (median)
Summary of the method: as §1

SUDHL5 [5] = test system: SUDHL5
Procedure: (§7) Assay 6 Induction of Cytotoxicity Upon Treatment of Cells with Selected Compounds
(§8) Therefore, cytotoxicity assays were run in parallel in SUDHL5 and SUDHL10 cells.
(§9) The different cell lines were plated in culture medium (RPMI 1640 [GIBCO #22400-089]supplemented with 10% Fetal Bovine Serum) at a density of 3,300 cells in 30 μL/well in a sterile, solid black, flat bottom, polystyrene, TC-treated 384-well microplate (Corning #3571) using Multidrop Combi Reagent Dispenser. As a control, medium without cells was also added to the plate. Cells were incubated in a humidified incubator at 37° C. overnight. […] Rim wells were excluded. The cells were incubated for 5 hours in a humidified incubator at 37° C. After this incubation, 30 μL of CellTiter-Glo® Luminescent Cell Viability reagent (Promega, G7573) was added to each well using the Multidrop Combi Reagent Dispenser, followed by 15 minutes incubation on a shaker at room temperature. Finally, luminescence was read at 0.1 ms, with a gain of 3000 using the PHERAstar FS microplate reader (BMG Labtech).

SUDHL10 [6] = test system: SUDHL10
Procedure: as §7, §8, §9

SUDHL10 [7] = test: Induction of cytotoxicity (Assay 6), SUDHL10
Procedure: as §7, §8, §9

KYSE-180 = test: Antiproliferation assay 7, KYSE-180; format: cell-based; conditions: Homo sapiens; KYSE-180 cells, 72 hours, CellTiter-Glo; read-out: Antiproli KYSE-180 IC50 median
Procedure: as §2, §3, §4, §5, §6

SUDHL5 [8] = test: Induction of cytotoxicity (Assay 6), SUDHL5
Procedure: as §7, §8, §9

T47D = test: Antiproliferation assay 7, T47D; format: cell-based; conditions: T47D cells, 72 hours, CellTiter-Glo; read-out: Antiproli T47D IC50 median
Procedure: as §2, §3, §4, §5, §6

[9] = from CCOC(=O)c1[nH]c2c(-c3c(N(C)CCCCCO)nn(C)c3C)c(Cl)ccc2c1CCCOc1cccc2cc(F)ccc12, amine bond, di-tert-butyl azodicarboxylate/PPh3, THF, 15.7 mM, 64.0 h
[10] = 3 hours, Caspase-Glo 3/7, read-out: Caspase SUDHL5 EC50 (median)
[11] = 3 hours, Caspase-Glo 3/7, read-out: Caspase SUDHL10 EC50 (median)
[12] = Homo sapiens, SU-DHL-5, 3 h, Caspase-Glo 3/7, read-out: Caspase SUDHL5 EC50 (median)
[13] = Homo sapiens, SU-DHL10, 3 h, Caspase-Glo 3/7, read-out: Caspase SUDHL10 EC50 (median)
[14] = Homo sapiens, SU-DHL10, 5 h, read-out: Cytotox SUDHL10 IC50 (median), SUDHL10 cells, 5 hours, CellTiter-Glo

Compound | IC50 (SUDHL10 [1]; 72 hours) [nM] | IC50 (MV-4-11; Homo sapiens, MV4-11, 72 h) [nM] | IC50 (AMO-1; Homo sapiens, AMO1, 72 h) [nM] | IC50 (HMC-1-8; 72 h) [nM] | IC50 (SK-BR-3; Homo sapiens) [nM] | IC50 (A2058; Homo sapiens) [nM] | IC50 (NCI-H23; Homo sapiens) [nM] | EC50 (SUDHL5 [2]; [10]) [nM] | EC50 (SUDHL10 [3]; [11]) [nM] | IC50 (SUDHL5 [4]; 72 hours) [nM] | IC50 (MV-4-11; 72 hours) [nM] | IC50 (AMO-1; 72 hours) [nM] | IC50 (HMC-1-8; 72 hours) [nM] | IC50 (A2058) [nM] | EC50 (SUDHL5 [2]; [12]) [nM] | EC50 (SUDHL10 [3]; [13]) [nM] | IC50 (SUDHL5 [4]; Homo sapiens, SU-DHL-5, 72 h) [nM] | IC50 (SUDHL10 [1]; Homo sapiens, SU-DHL10, 72 h) [nM] | IC50 (SUDHL10 [7]; [14]) [nM] | also measured
Cc1nn(C)c2c1-c1c(Cl)ccc3c(CCCOc4cccc5ccccc45)c(C(=O)O)n(c13)CCCCOC2 (single isomer, unassigned; enantiomer 1) [Example 3, 4-chloro-1,3-dimethyl-7-[3-(naphthalen-1-yloxy)propyl]-1,10,11,12,13,15-hexahydropyrazolo[4′,3′:9,10][1,6]oxazacycloundecino[8,7,6-hi]indole-8-carboxylic Acid (Enantiomer 1)] | 1700 | 766 | 2510 | 8280 | 7370 | > 30000 | 6120 |  |  |  |  |  |  |  |  |  |  |  |  | IC50 (SNU-389): 20600 nM
Cc1c2c(nn1C)COCCCCn1c(C(=O)O)c(CCCOc3cccc4ccccc34)c3ccc(Cl)c-2c31 (racemic) [Example 25, (rac)-4-chloro-2,3-dimethyl-7-[3-(naphthalen-1-yloxy)propyl]-2,10,11,12,13,15-hexahydropyrazolo[4′,3′:9,10][1,6]oxazacycloundecino[8,7,6-hi]indole-8-carboxylic Acid] |  |  |  |  |  |  |  | 390 | 1200 | 560 | 2780 | 1310 | 6480 | 21900 |  |  |  |  |  | IC50 (SK-BR-3): 12900 nM; IC50 (NCI-H23): 6010 nM; IC50 (SUDHL5 [5]): 530 nM; IC50 (SUDHL10 [6]): 930 nM
Cc1nn(C)c2c1-c1c(Cl)ccc3c(CCCOc4cccc5ccccc45)c(C(=O)O)n(c13)CCCCOC2 (racemic) [Example 2, rac-4-chloro-1,3-dimethyl-7-[3-(naphthalen-1-yloxy)propyl]-1,10,11,12,13,15-hexahydropyrazolo[4′,3′:9,10][1,6]oxazacycloundecino[8,7,6-hi]indole-8-carboxylic Acid] |  | 1610 | 4860 | 15300 | 8270 | > 30000 | 14600 |  |  |  |  |  |  |  | 950 | 3800 | 2800 | 2400 | 3000 | 
Cc1c2c(nn1C)CN(C)CCCCn1c(C(=O)O)c(CCCOc3cccc4ccccc34)c3ccc(Cl)c-2c31 (single isomer, unassigned; enantiomer 1) [Example 12, (+)-4-chloro-2,3,14-trimethyl-7-[3-(naphthalen-1-yloxy)propyl]-10,11,12,13,14,15-hexahydro-2H-pyrazolo[3′,4′:8,9][1,6]diazacycloundecino[10,11,1-hi]indole-8-carboxylic acid-N-ethylethanamine Salt (Enantiomer 1)] |  | 441 | 335 | 1580 | 667 | 4830 |  |  |  |  |  |  |  |  | 64 | 97 | 170 | 140 | 140 | IC50 (KYSE-180): 3790 nM; IC50 (SUDHL5 [8]; Homo sapiens, SU-DHL-5, 5 h, read-out: Cytotox SUDHL5 IC50 (median), SUDHL5 cells, 5 hours, CellTiter-Glo): 83 nM
Cc1c2c(nn1C)COCCCCn1c(C(=O)O)c(CCCOc3cccc4cc(F)ccc34)c3ccc(Cl)c-2c31 (single isomer, unassigned; enantiomer 1) [Example 15, (+)-4-chloro-7-{3-[(6-fluoronaphthalen-1-yl)oxy]propyl}-2,3-dimethyl-2,10,11,12,13,15-hexahydropyrazolo[4′,3′:9,10][1,6]oxazacycloundecino[8,7,6-hi]indole-8-carboxylic acid-N-ethylethanamine Salt (Enantiomer 1)] | 200 |  |  |  |  |  |  | 150 | 150 | 190 | 461 | 530 | 1360 | 5860 |  |  |  |  |  | IC50 (T47D): 11900 nM; IC50 (SUDHL5 [8]; read-out: Cytotox SUDHL5 IC50 (median), SUDHL5 cells, 5 hours, CellTiter-Glo): 140 nM; IC50 (SUDHL10 [7]; read-out: Cytotox SUDHL10 IC50 (median), SUDHL10 cells, 5 hours, CellTiter-Glo): 230 nM
CCOC(=O)c1c(CCCOc2cccc3cc(F)ccc23)c2ccc(Cl)c3c2n1CCCCCN(C)c1nn(C)c(C)c1-3 |  |  |  |  |  |  |  |  |  |  |  |  |  |  |  |  |  |  |  | ring closure, yield of all isomers [9]: 44.8%
